Source: US7144922B2, “Method and compound for the prophylaxis or treatment of an immunodeficiency condition, such as AIDS” (priority 2002, dated 2006)
Like-named read-outs stand apart in the source and are kept apart here.

Assays:
HIV-1 (RF) = experiment: Antiviral drug assay in CEM-SS cells infected with HIV-1 RF (efficacy, tetrazolium reduction); format: cell-based; conditions: for Efficacy % CC (cell control): CEM-SS, HIV-1 (RF), day 6; for EC50: read-out: 50% effective concentration (EC50)
Description: Antiviral Drug Assay in CEM-SS Cells
(§1) This assay was used to test the effectiveness of anti-HIV drug monotherapy in the established T-cell line CEM-SS infected with HIV-1RF, HIV-1IIIb, HIV-2ROD, or other cytolytic variants of HIV. The antiviral agent and control (known antiviral drug—AZT) efficacy and cytotoxicity were determined by the metabolic reduction of the tetrazolium salt MTS (available from Promega).
(§2) The drugs were solubilized in DMSO (dimethyl sulfoxide). Three to ten vials of the antiviral agent and AZT were prepared and maintained at −70° C. CEM-SS cells were in logarithmic growth phase at the time of experimentation. Virus (HIV-1RF) stocks that past the necessary quality controls (killing effect on the type of cells used, limited variability, etc) were thawed and maintained on ice until required for addition.
(§3) Half-log serial dilutions of the antiviral agent or compound of the invention, H2K1001 (90i), were made in tissue culture media (RPMI 1640 without phenol red, supplemented with 10% heat inactivated fetal bovine serum, 1% L-Glutamine, 1% Pen/Strep and 50 ug/ml gentimycin). Virus, cell, drug and diluent (ethanol) controls were included for these tests. Virus was added after cells and drugs were mixed. Cell, drug, and virus containing cultures were incubated for six (6) days without additional feeding at which time the cultures were evaluated macrosopically and microscopically for cell toxicity, and the tetrazolium salt MTS was added for quantitation by the colorimetric determination of formazan production (optical density).
(§4) Drug efficacy and cytotoxicity effects were determined six days after infection by the metabolic reduction of the tetrazolium salt XTT to its' formazan by surviving cells and was quantitated by determination of optical density at 450 nm with background subtraction at 650 nm (Tables 1–4).
(§5) The drug plate analysis reports from this assay are provided below in Tables 1–4. Calculated endpoints (EC50, etc.) were determined using Cho and Cho Median Effect Equation (Daids Virology Manual for HIV Laboratories, Compiled by The Division of Aids, National Institute of Allergy and Infectious Diseases, National Institutes of Health and Collaborating Investigators, Version January 1997).

HIV-1 (P2) = experiment: Antiviral drug assay in PBMC infected with clinical isolate HIV-1 P2 (supernatant p24 ELISA); format: cell-based; conditions: for Efficacy % p24 Reduction: HIV-1 P2, day 7
Description: (§6) This assay was used to test the effectiveness of anti-HIV drug monotherapy in peripheral blood mononuclear cells (PBMC) infected with clinical isolates of HIV-1. Drug efficacy was determined by the production of supernatant HIV-1 p24. Drug-induced cytotoxicity was determined by the metabolic reduction of tetrazolium salts (MTS; Promega).
(§7) The antiviral drug or agent of the invention, H2K-1001 (90i), was solubilized. PBMCs, stimulated with PHA (phytohemagglutinin) for three days were employed throughout. Virus stocks (U.S. Clinical isolates) grown in PBMCs only, that past the necessary quality controls (i.e., replicate to high titer in PBMCs and meet the requirements as to genotype and phenotype) were rapidly thawed and maintained on ice until required for infection.
(§8) Half-log serial dilutions of test drugs and controls were prepared in tissue culture media (RPMI 1640 without phenol red, supplemented with 10% heat inactivated fetal bovine serum, 1% L-Glutamine, 1% Pen/Strep and 50 μg/ml gentamicin). Virus and cell controls were included on each test plate. Virus was added after cells and drugs were mixed. Cell, drug and virus containing cultures were incubated for seven (7) days with an interim feeding at day three or four.
(§9) Supernatants were sampled at seven days for p24 determination by antigen capture ELISA. Cytotoxicity was measured by the metabolic reduction of the tetrazolium salt according to the manufacturer's (Promega) recommendations.
(§10) The drug analysis reports from these studies are provided below in Tables 7–10. Efficacy (EC50) and viability (IC50) determinations were made using Cho and Cho Median Effect Equation, as noted above. Efficacy is expressed as the 50% effective concentration (EC50) and drug induced toxicity as the 50% inhibitory concentration (IC50).

[1] = test system: peripheral blood mononuclear cells (PBMC); experiment: Toxicity testing in PBMC (tetrazolium MTS reduction); format: cell-based
Description: as §6, §7, §8, §9, §10

susceptible isolates = experiment: AZT in studies of susceptible isolates in PBMCs; format: cell-based, HIV-1; conditions: typical value
Description: Testing in PBMCs was directed against a primary clinical isolate of HIV-1 P2, which is resistant to a variety of non-nucleoside inhibitors or HIV-1 reverse transcriptase and, in our hands, AZT. Testing AZT (control) against this virus, as expected, produced a relatively high EC50 of 3 uM. Typically AZT produces EC50s of less than 0.01 uM in studies of susceptible isolates in PBMCs.

[2] = test system: CEM-SS T-lymphoblastoid cells; experiment: Toxicity testing in CEM-SS T-lymphoblastoid cells (tetrazolium reduction); format: cell-based; conditions: for Toxicity % CC (cell control): day 6; for IC50: read-out: 50% inhibitory concentration, IC50 (drug induced toxicity)
Description: as §1, §2, §3, §4, §5

Cc1cn([C@H]2C[C@H](N=[N+]=[N-])[C@@H](CO)O2)c(=O)[nH]c1=O [AZT, reference compound]
Efficacy % CC (cell control) (HIV-1 (RF); 0.001 uM): 42% | Efficacy % CC (cell control) (HIV-1 (RF); 0.003 uM): 44% | Efficacy % CC (cell control) (HIV-1 (RF); 0.01 uM): 90% | Efficacy % CC (cell control) (HIV-1 (RF); 0.03 uM): 83% | Efficacy % CC (cell control) (HIV-1 (RF); 0.1 uM): 85% | Efficacy % CC (cell control) (HIV-1 (RF); 0.3 uM): 82% | Efficacy % CC (cell control) (HIV-1 (RF); 1 uM): 90% | Efficacy % CC (cell control) (HIV-1 (RF); 3 uM): 82% | Efficacy % CC (cell control) (HIV-1 (RF); 10 uM): 87% | EC50 (HIV-1 (RF); CEM-SS cells, HIV-1 RF): ~3.5 nM | Efficacy % p24 Reduction (HIV-1 (P2); 0.001 uM): 12% | Efficacy % p24 Reduction (HIV-1 (P2); 0.003 uM): 21% | Efficacy % p24 Reduction (HIV-1 (P2); 0.01 uM): 14% | Efficacy % p24 Reduction (HIV-1 (P2); 0.03 uM): 10% | Efficacy % p24 Reduction (HIV-1 (P2); 0.10 uM): 20% | Efficacy % p24 Reduction (HIV-1 (P2); 0.32 uM): 26% | Efficacy % p24 Reduction (HIV-1 (P2); 1 uM): 22% | Efficacy % p24 Reduction (HIV-1 (P2); 3 uM): 51% | Efficacy % p24 Reduction (HIV-1 (P2); 10 uM): 77% | EC50 (HIV-1 (P2); clinical isolate HIV-1 P2, read-out: EC50): 3000 nM | Toxicity % CC (cell control) ([1]; 0.001 uM): 100% | Toxicity % CC (cell control) ([1]; 0.003 uM): 111% | Toxicity % CC (cell control) ([1]; 0.01 uM): 100% | Toxicity % CC (cell control) ([1]; 0.03 uM): 99% | Toxicity % CC (cell control) ([1]; 0.10 uM): 101% | Toxicity % CC (cell control) ([1]; 0.32 uM): 99% | Toxicity % CC (cell control) ([1]; 1 uM): 105% | Toxicity % CC (cell control) ([1]; 3 uM): 105% | Toxicity % CC (cell control) ([1]; 10 uM): 104% | EC50 (susceptible isolates): < 10 nM | Toxicity % CC (cell control) ([2]; 0.001 uM, CEM-SS): 93% | Toxicity % CC (cell control) ([2]; 0.003 uM, CEM-SS): 100% | Toxicity % CC (cell control) ([2]; 0.01 uM, CEM-SS): 109% | Toxicity % CC (cell control) ([2]; 0.03 uM, CEM-SS): 104% | Toxicity % CC (cell control) ([2]; 0.1 uM, CEM-SS): 102% | Toxicity % CC (cell control) ([2]; 0.3 uM, CEM-SS): 102% | Toxicity % CC (cell control) ([2]; 1 uM, CEM-SS): 96% | Toxicity % CC (cell control) ([2]; 3 uM, CEM-SS): 95% | Toxicity % CC (cell control) ([2]; 10 uM, CEM-SS): 95% | IC50 ([2]; CEM-SS cells): > 10000 nM

O=C(OCCOCCOC(=O)c1ccccc1)c1ccccc1 [H2K1001 (90i), diethylene glycol dibenzoate]
Efficacy % CC (cell control) (HIV-1 (RF); 0.01 ug/ml): 42% | Efficacy % CC (cell control) (HIV-1 (RF); 0.03 ug/ml): 80% | Efficacy % CC (cell control) (HIV-1 (RF); 0.1 ug/ml): 87% | Efficacy % CC (cell control) (HIV-1 (RF); 0.3 ug/ml): 83% | Efficacy % CC (cell control) (HIV-1 (RF); 1 ug/ml): 84% | Efficacy % CC (cell control) (HIV-1 (RF); 3 ug/ml): 84% | Efficacy % CC (cell control) (HIV-1 (RF); 10 ug/ml): 82% | Efficacy % CC (cell control) (HIV-1 (RF); 33 ug/ml): 86% | Efficacy % CC (cell control) (HIV-1 (RF); 100 ug/ml): 88% | 50% effective concentration (EC50) (HIV-1 (RF); CEM-SS cells, HIV-1 RF, listed as 90i): approximately 0.020 ug/ml | EC50 (HIV-1 (RF); Human immunodeficiency virus 1, CEM-SS, CEM-SS cells, HIV-1 RF): 0.02 µg/mL | Efficacy % p24 Reduction (HIV-1 (P2); 0.01 ug/ml): 23% | Efficacy % p24 Reduction (HIV-1 (P2); 0.03 ug/ml): 25% | Efficacy % p24 Reduction (HIV-1 (P2); 0.10 ug/ml): 36% | Efficacy % p24 Reduction (HIV-1 (P2); 0.33 ug/ml): 36% | Efficacy % p24 Reduction (HIV-1 (P2); 1 ug/ml): 53% | Efficacy % p24 Reduction (HIV-1 (P2); 3 ug/ml (3.2 in Table 11)): 87% | Efficacy % p24 Reduction (HIV-1 (P2); 10 ug/ml): 95% | Efficacy % p24 Reduction (HIV-1 (P2); 32 ug/ml): 94% | Efficacy % p24 Reduction (HIV-1 (P2); 100 ug/ml): 93% | EC50 (HIV-1 (P2); Human immunodeficiency virus 1, PBMC, clinical isolate HIV-1 P2, read-out: 50% effective concentration (EC50)): 0.8 µg/mL | 50% effective concentration (EC50) (HIV-1 (P2); clinical isolate HIV-1 P2, listed as 90i): approximately 0.8 ug/ml | Toxicity % CC (cell control) ([1]; 0.01 ug/ml): 94% | Toxicity % CC (cell control) ([1]; 0.03 ug/ml): 103% | Toxicity % CC (cell control) ([1]; 0.10 ug/ml): 91% | Toxicity % CC (cell control) ([1]; 0.33 ug/ml): 94% | Toxicity % CC (cell control) ([1]; 1 ug/ml): 97% | Toxicity % CC (cell control) ([1]; 3 ug/ml (3.2 in Table 11)): 94% | Toxicity % CC (cell control) ([1]; 10 ug/ml): 100% | Toxicity % CC (cell control) ([1]; 32 ug/ml): 104% | Toxicity % CC (cell control) ([1]; 100 ug/ml): 111% | IC50 ([1]; no unit printed, read-out: IC50 (drug induced toxicity)): > 100 µg/mL | IC50 ([1]; read-out: 50% inhibitory concentration, IC50 (drug induced toxicity)): > 100 µg/mL | Toxicity % CC (cell control) ([2]; 0.01 ug/ml, CEM-SS): 100% | Toxicity % CC (cell control) ([2]; 0.03 ug/ml, CEM-SS): 103% | Toxicity % CC (cell control) ([2]; 0.1 ug/ml, CEM-SS): 104% | Toxicity % CC (cell control) ([2]; 0.3 ug/ml, CEM-SS): 100% | Toxicity % CC (cell control) ([2]; 1 ug/ml, CEM-SS): 100% | Toxicity % CC (cell control) ([2]; 3 ug/ml, CEM-SS): 99% | Toxicity % CC (cell control) ([2]; 10 ug/ml, CEM-SS): 93% | Toxicity % CC (cell control) ([2]; 33 ug/ml, CEM-SS): 94% | Toxicity % CC (cell control) ([2]; 100 ug/ml, CEM-SS): 106% | 50% inhibitory concentration, IC50 (drug induced toxicity) ([2]; CEM-SS cells, listed as 90i): > 100 µg/mL | IC50 ([2]; Homo sapiens, CEM-SS): > 100 µg/mL
